Legend:
[1] = test system: MDA; assay: MDA content of cerebral cortex and hippocampus of Aβ1-40-induced AD mice; type: in vivo
[2] = test system: primary cerebral cortex neurons of rat; assay: Protection of primary neurons impaired by aged Aβ25-35 (MTT); type: cell-based; conditions: 30 μM aged Aβ25-35 24 h, Aβ alone 54.5±8.9%
Experimental: The primary cerebral cortex neurons of rat are cultured as the method of reference (Banker G A, et al., Rat hippocampal neurons in dispersed cell culture. Brain Res, 1977, 126:397-425). The cells cultured for 1 week are used in this experiment. That is to say, on the 8th day the cells are pretreated with a series of concentrations of 6-mer (final concentration of 0, 10, 50, 100 μg/ml) for 24 h, followed by the addition of aged Aβ25-35 (Firstly resolved in distilled water with a concentration of 1 mg/ml, then stayed at 37° C. for 7 days to get aged Aβ25-35 and stored at −20° C. for use) with a final concentration of 30 μM. After 24 h at 37° C., 10 μl of MTT with a concentration of 5 mg/ml is added. After 4 h at 37° C., the supernatant is removed and 150 μl of DMSO is added. Then the absorbance at 570 nm (630 nm as reference) is recorded with an ELISA reader (Rainbow, TECAN, Austria).

[3] = test system: SH-SY5Y cells; assay: Protection of SH-SY5Y cells impaired by Aβ25-35 and Aβ1-40; type: cell-based; conditions: 50 and 100 μg/ml; 30 μM aged Aβ25-35 or 2 μM Aβ1-40 for 48 h (FIG. 7, 8)
Experimental: 6-mer has similar protective effects on neuron cell line SH-SY5Y as the primary neurons. SH-SY5Y impaired with 30 μM of aged Aβ25-35 (FIG. 7) and 2 μM of Aβ1-40 (FIG. 8) for 48 h could induce a series of changes, for example, damage to the cells, reduced number of cells, occurrence of some round cells and suspension cells. Further, the survival rate of the cells is reduced to 73.3±9.4% and 64.1±2.5% respectively.

For O=C(O)C1OC(OC2C(C(=O)O)OC(OC3C(C(=O)O)OC(OC4C(C(=O)O)OC(OC5C(C(=O)O)OC(OC6C(C(=O)O)OC(O)C(O)C6O)C(O)C5O)C(O)C4O)C(O)C3O)C(O)C2O)C(O)C(O)C1O (stereo not shown) [6-mer, mannuronic hexasaccharide], the “MDA content (nmol/ml) cerebral cortex” value ([1]; 15 mg/kg) was 1.79 ± 0.15 nmol/mL, the “MDA content (nmol/ml) cerebral cortex” value ([1]; 30 mg/kg) was 1.87 ± 0.18 nmol/mL and the “MDA content (nmol/ml) cerebral cortex” value ([1]; 60 mg/kg) was 1.47 ± 0.11 nmol/mL. For the same compound, the “MDA content (nmol/ml) hippocampus” value ([1]; 15 mg/kg) was 4.28 ± 0.82 nmol/mL, the “MDA content (nmol/ml) hippocampus” value ([1]; 30 mg/kg) was 2.48 ± 0.43 nmol/mL and the “MDA content (nmol/ml) hippocampus” value ([1]; 60 mg/kg) was 2.18 ± 0.43 nmol/mL. For the same compound, the survived rate ([2]; 10 μg/ml 6-mer 24 h pretreatment) was 72.0±11.2%, the survived rate ([2]; 50 μg/ml 6-mer 24 h pretreatment) was 77.1±8.1% and the survived rate ([2]; 100 μg/ml 6-mer 24 h pretreatment) was 82.3±11.6%. The “neurotoxicity of Aβ (survival rate, suspension cells)” value [3] was “significantly inhibit the neurotoxicity of Aβ”.
